Laboratory results reported in patent US20260335299A1, “SUBSTITUTED OXOISOINDOLINYL PIPERIDINE-2,6-DIONE COMPOUND AS ANTICANCER AGENT” (BRISTOL-MYERS SQUIBB COMPANY, priority 2023, published 2026).

Tests used:
Assay type in all cases: cell-based
[1] = biological target: IKZF1 Ikaros (Homo sapiens, UniProt Q13422+Q96SW2); assay: Human CD8+ T Cell Reprogramming (Degradation) Assay (Ikaros); parameters: Cryopreserved healthy donor human peripheral blood mononuclear cells (PBMC); endogenous in cells; host or cells: CD8+ T cells within healthy donor human PBMC; conditions: CD8+ T cells, human PBMC, 24 h
IKZF1 Ikaros, sequence (Q13422 whole entry): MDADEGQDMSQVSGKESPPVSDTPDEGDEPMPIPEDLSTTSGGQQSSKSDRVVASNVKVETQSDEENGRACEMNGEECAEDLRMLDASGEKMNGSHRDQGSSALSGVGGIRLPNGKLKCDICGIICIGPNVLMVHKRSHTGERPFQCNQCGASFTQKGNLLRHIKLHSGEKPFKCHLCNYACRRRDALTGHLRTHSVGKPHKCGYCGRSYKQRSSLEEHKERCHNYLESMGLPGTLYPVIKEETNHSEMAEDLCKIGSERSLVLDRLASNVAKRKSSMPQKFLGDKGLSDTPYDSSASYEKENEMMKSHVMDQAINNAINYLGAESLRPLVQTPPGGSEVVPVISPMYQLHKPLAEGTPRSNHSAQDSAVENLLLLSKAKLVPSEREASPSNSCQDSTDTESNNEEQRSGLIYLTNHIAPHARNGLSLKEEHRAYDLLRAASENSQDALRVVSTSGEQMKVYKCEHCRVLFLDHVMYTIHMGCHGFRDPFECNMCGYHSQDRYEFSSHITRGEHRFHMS
IKZF1 Ikaros, sequence (Q96SW2 whole entry): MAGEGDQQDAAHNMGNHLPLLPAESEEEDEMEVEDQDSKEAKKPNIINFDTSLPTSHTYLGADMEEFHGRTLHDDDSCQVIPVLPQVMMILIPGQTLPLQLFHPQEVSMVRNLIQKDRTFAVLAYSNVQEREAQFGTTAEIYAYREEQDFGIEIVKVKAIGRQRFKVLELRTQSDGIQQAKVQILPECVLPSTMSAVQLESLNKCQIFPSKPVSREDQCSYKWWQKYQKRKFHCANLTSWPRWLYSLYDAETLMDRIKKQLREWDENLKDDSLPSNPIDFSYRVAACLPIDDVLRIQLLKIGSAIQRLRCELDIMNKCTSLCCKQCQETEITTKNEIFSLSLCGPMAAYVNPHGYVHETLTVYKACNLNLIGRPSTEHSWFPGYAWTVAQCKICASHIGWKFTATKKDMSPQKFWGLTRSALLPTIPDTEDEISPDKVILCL
IKZF1 Ikaros, sequence (Q16531 whole entry partner): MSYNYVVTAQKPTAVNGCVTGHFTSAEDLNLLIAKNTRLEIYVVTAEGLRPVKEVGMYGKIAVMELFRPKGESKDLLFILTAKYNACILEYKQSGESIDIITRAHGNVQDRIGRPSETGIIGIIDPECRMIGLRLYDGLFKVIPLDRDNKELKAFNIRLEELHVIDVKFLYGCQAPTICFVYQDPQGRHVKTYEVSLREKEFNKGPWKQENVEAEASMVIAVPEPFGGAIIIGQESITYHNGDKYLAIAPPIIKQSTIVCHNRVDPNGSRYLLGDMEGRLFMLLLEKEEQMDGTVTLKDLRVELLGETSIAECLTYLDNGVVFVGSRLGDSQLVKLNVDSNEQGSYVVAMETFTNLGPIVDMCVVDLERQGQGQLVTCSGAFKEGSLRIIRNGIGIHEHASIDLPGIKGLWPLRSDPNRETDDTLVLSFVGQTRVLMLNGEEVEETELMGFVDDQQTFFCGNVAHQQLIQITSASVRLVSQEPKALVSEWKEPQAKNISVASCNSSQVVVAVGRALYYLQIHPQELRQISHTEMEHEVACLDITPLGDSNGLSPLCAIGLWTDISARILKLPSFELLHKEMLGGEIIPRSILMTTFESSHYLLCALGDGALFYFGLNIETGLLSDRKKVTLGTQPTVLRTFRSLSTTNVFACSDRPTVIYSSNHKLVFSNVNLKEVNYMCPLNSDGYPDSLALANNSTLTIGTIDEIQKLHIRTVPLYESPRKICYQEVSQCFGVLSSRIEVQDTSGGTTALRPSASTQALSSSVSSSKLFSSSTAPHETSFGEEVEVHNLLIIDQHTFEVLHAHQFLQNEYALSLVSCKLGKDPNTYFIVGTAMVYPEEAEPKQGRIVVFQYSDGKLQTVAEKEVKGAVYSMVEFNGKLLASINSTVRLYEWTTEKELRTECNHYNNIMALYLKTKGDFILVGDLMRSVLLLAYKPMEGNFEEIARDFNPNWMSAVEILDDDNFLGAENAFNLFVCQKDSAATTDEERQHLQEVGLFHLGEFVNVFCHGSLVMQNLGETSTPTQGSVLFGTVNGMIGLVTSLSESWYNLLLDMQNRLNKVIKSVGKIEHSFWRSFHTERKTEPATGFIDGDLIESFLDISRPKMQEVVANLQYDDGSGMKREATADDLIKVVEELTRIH
Procedure: (§1) Cryopreserved healthy donor human peripheral blood mononuclear cells (PBMC) from healthy donors were thawed and seeded at 500,000 cells/well of 96-well round bottom plates in RPMI 1640 media (Gibco) supplemented with 10% FBS, Pen/Strep (Gibco), MEM-NEAA (Gibco), and sodium pyruvate (Gibco). Cells were treated with titrated doses of compound for 24 hours at 37° C., 5% CO2 before analyzing by flow cytometry.
(§2) For flow cytometry staining, cells were washed twice with flow cytometry staining buffer (Thermo Fisher) and incubated in Human Tru-stain Fc block (Biolegend) for 10 minutes before adding eFluor780 viability dye (Thermo Fisher) and surface marker antibody cocktail containing LD-eFluor780, CD3-BUV-395, CD4-BUV805, CD8-FITC, and CD25-BV605 for 30 minutes at 4° C. Cells were then fixed and permeabilized by incubation with permeabilization buffer (eBioscience FoxP3 buffer set 00-5523-00) for 30 minutes at 4° C. as per the kit manufacturer's instructions. Cells were washed twice with the Perm/Wash buffer supplied in the kit as per the manufacturer's instructions and incubated overnight at 4° C. with an intracellular antibody cocktail comprised of antibodies specific for the transcription factors (i.e., Foxp3-BV421, HELIOS-PE-Cy7, EOS-PE, IKAROS-PECF594, AIOLOS-AF647). Cells were washed twice with Perm/Wash buffer and resuspended in flow cytometry staining buffer (Thermo Fisher) prior to acquisition. Sample acquisition and analysis was performed using a BD LSRFortessa (BD Biosciences) flow cytometer. Single-stain controls for each fluorochrome were prepared using UltraComp eBead Compensation Beads (Thermo Fisher). Data were analyzed using FlowJo version 10 and GraphPad Prism Software.
(§3) Table D-1 lists the maximum observed degradation of the IKZF1 protein and IKZF3 protein as measured in the Human CD8^+ T Cell Reprogramming assay. The results in Table D-1 were rounded to two digits. In the Human CD8^+ T Cell Reprogramming assay, a value of 100% indicated no detectable protein remaining or complete degradation of the protein; and a value of 0% indicated no detectable degradation of the protein by the test compound.

[2] = biological target: T1, IKZF3 Aiolos (Homo sapiens, UniProt Q96SW2+Q9UKT9); assay: Jurkat Cellular Degradation Assay (Aiolos); parameters: endogenous in cells; host or cells: Jurkat cells; conditions: Jurkat cells, 72 h
T1 sequence (Q9UKT9 whole entry): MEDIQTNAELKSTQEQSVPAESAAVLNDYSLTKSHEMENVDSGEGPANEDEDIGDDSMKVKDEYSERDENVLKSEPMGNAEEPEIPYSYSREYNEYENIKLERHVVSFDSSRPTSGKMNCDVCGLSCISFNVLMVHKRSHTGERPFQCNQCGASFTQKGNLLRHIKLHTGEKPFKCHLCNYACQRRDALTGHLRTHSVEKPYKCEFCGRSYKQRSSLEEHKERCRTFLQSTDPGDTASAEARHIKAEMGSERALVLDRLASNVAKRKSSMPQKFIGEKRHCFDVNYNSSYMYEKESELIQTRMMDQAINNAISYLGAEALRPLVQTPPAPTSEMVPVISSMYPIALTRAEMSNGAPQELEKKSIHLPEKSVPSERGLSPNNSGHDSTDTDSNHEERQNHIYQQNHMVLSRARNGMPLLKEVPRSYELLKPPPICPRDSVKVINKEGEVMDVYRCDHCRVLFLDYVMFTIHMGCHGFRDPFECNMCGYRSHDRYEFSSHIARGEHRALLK
T1 sequence (Q96SW2 whole entry): as the sequence (Q96SW2 whole entry) above
T1 sequence (Q16531 whole entry partner): as the sequence (Q16531 whole entry partner) above
Procedure: Jurkat cells were plated at 80,000 cells/well in 40 μL RPMI+10% FBS in a 384-well cell culture plate prior to using acoustic dispensing technology for adding a compound of interest. Cell cultures were incubated for 72 h at 37° C. and 5% CO2. In order to facilitate analysis, cell cultures were spun down at 200 rpm for 5 min and the supernatant was discarded. After shaking the plate to dislodge the cell pellet, cells were resuspended in 50 μL of Fixation Buffer (eBioscience FoxP3 buffer set 00-5523-00) for 60 min at room temperature. After centrifuging and discarding the supernatant, cells were permeabilized with 50 μL of Permeabilization buffer (eBioscience FoxP3 buffer set 00-5523-00) for 10 min at room temperature. Following permeabilization, cells were spun down and the supernatant was replaced with 20 μL fluorescently labelled antibodies against Helios, Ikaros and Aiolos or corresponding Isotype controls in 1× Permeabilization buffer (Ikaros-Alexa488 [Biolegend, Cat #368408, 1:50], Helios-PE [CST, Cat #29360, 1:50], Aiolos-Alexa647 [Biolegend, Cat #371106 Biolegend, 1:25]) and staining reactions were incubated for 1 h at room temperature while protected from light. Subsequently, 30 μL of 1× Permeabilization buffer was added prior to centrifuging the cells and discarding the supernatant. Stained cells were resuspended in 25 μL of flow cytometry staining buffer [PBS+0.2% bovine serum albumin (BSA)] and analyzed using an Intellicyt Ique Plus flow cytometer.
Table A-1 lists the maximum observed degradation of the IKZF1 protein, IKZF2 protein, and IKZF3 protein as measured in the Jurkat Cellular Degradation assay. The results in Table A-I were rounded to two digits. In the Jurkat Cellular Degradation assay, a value of 100% indicated no detectable protein remaining or complete degradation of the protein; and a value of 0% indicated no detectable degradation of the protein by the test compound.

[3] = biological target: T1, IKZF3 Aiolos; assay: Human CD8+ T Cell Reprogramming (Degradation) Assay (Aiolos); parameters: Cryopreserved healthy donor human peripheral blood mononuclear cells (PBMC); endogenous in cells; host or cells: CD8+ T cells within healthy donor human PBMC; conditions: 24 h
Procedure: as §1, §2, §3

[4] = concentration reducing protein level by 50% compared to DMSO alone

## Nc1nc(-c2ccc3c(c2F)CN(C2CCC(=O)NC2=O)C3=O)ccc1CN1CC(C2CCC(F)(F)CC2)C1 (centres unmarked) [Example 1, 3-(5-(6-Amino-5-((3-(4,4-difluorocyclohexyl)azetidin-1-yl)methyl)pyridin-2-yl)-4-fluoro-1-oxoisoindolin-2-yl) piperidine-2,6-dione]
[1]; [4]
  DC50: 0.035 to 0.044 µM
[1]; read-out: IKZF1 Ikaros Maximum Observed Degradation
  Dmax: 86%
[2]; [4]
  DC50: > 10 µM
[2]; human, read-out: IKZF3 Aiolos max % deg. observed
  Dmax: 48%
[3]; summary table, Human CD8+ T Cell Reprogramming Assay (Table D-1), read-out: IKZF3 Aiolos max % deg. observed (Table E)
  Dmax: 80 to 84%
[3]; CD8+ T cells, human PBMC, concentration reducing protein level by 50% compared to DMSO alone
  DC50: 0.033 to 0.036 µM
[3]; CD8+ T cells, human PBMC, read-out: IKZF3 Aiolos Maximum Observed Degradation
  Dmax: 80 to 84%
[3]; human, text summary of Table D-1, read-out: decreased the level of IKZF3 (Aiolos)
  Dmax: ≥ 80%
